In one assay the target is SMARCA2 (Homo sapiens, UniProt P51531). The assay can be described thus: SMARCA2 degradation in NCI-H838 cells by Western blot. It is filed as cell-based. Further details: endogenous in cells; host or cells: NCI-H838 (ATCC CRL-5844). As to conditions: 16 hours. The protocol: Determination of SMARCA2 Degradation in NCI-1H838 Cells by Western Blot:
NCI-1H838 (ATCC CRL-5844) was plated in 6 well plates using complete RPMI-1640 media. Next day, compounds of present invention were added to cells from 10 mM stocks made in DMSO (Sigma Cat no. D2650). Each concentration of compound was tested with DMSO concentration not exceeding a final percentage of 0.3 in the cells. Cells were incubated with the compound for 16 hours followed by harvesting with 1× RIPA lysis buffer (Thermo Fischer, catalogue number #89900) containing protease inhibitor cocktail (Sigma catalogue number #P-8340). Equal amount of protein was loaded on SIDS PAGE gel for electrophoresis. Western blot was carried out for detection of SMARCA2 with antibody (Cell signaling technologies, catalogue number #11966). Beta Actin (Santa Cruz, catalogue number #69879) was used as loading control. Percentage of SMARCA2 degradation was calculated using formula % degradation=100−(normalized band intensity in treated sample/normalized band intensity in DMSO sample)*100”.
Selected compounds of the present invention were screened in the above mentioned assay procedures for determination of % SMARCA2 degradation at 100 nM and the results are summarized in below table 31.

The next assay has as its system NCI-H929 cells. Description: Anti proliferative activity in NCI-H929 cell line by Cell Titer Glo assay. It counts as cell-based. As to conditions: Homo sapiens, 72 h, 3 days compound incubation, CellTiter Glo, read-out: Anti-proliferative activity IC50 group (NCI-H929 cells). On the procedure: Determination of Anti Proliferative Activity of Compounds in NCI-H929 and NCI-H838 Cell Lines by Cell Titer Glo® (promega) assay:
NCI-H929 (ATCC CRL-9068) or NCI-H838 (ATCC CRL-5844) cells were seeded in 96 well plate flat black clear bottom plates (Corning, Cat. No 3904) using complete RPMI-1640 media. Next day, compounds listed in the present invention were added to cells from 10 mM stocks made in DMSO (Sigma Cat no. D2650). Each concentration of compound was tested in triplicate with DMSO concentration at a final percentage not exceeding 0.3 in the cells. After the compound incubation (3 days for H929 and 8 days for H838) assay was terminated using 50 μl of CellTiter Glo® reagent (Promega, Cat. no G7572). CellTiter Glo® Luminescent reagent determines the number of viable cells based on quantitation of ATP present which is an indicator of cell number and metabolic activity. Luminescence readings were taken in Victor-3 instrument. Percent inhibition of proliferation was calculated using formula, % inhibition=100−(luminescence value of test/luminescence value of DMSO control)*100. DMSO control (0%)=Cells in complete media with DMSO; blank=Media alone containing DMSO. IC50 was calculated using graph pad prism software.
Herein group “A” refers to IC50 value lower than 1 μM, “B” refers to IC50 value between 1-10 μM (both inclusive) and “C” refers to IC50 value higher than 10 μM or less than 50% activity at 10 μM.

SMARCA2, sequence (P51531 whole entry): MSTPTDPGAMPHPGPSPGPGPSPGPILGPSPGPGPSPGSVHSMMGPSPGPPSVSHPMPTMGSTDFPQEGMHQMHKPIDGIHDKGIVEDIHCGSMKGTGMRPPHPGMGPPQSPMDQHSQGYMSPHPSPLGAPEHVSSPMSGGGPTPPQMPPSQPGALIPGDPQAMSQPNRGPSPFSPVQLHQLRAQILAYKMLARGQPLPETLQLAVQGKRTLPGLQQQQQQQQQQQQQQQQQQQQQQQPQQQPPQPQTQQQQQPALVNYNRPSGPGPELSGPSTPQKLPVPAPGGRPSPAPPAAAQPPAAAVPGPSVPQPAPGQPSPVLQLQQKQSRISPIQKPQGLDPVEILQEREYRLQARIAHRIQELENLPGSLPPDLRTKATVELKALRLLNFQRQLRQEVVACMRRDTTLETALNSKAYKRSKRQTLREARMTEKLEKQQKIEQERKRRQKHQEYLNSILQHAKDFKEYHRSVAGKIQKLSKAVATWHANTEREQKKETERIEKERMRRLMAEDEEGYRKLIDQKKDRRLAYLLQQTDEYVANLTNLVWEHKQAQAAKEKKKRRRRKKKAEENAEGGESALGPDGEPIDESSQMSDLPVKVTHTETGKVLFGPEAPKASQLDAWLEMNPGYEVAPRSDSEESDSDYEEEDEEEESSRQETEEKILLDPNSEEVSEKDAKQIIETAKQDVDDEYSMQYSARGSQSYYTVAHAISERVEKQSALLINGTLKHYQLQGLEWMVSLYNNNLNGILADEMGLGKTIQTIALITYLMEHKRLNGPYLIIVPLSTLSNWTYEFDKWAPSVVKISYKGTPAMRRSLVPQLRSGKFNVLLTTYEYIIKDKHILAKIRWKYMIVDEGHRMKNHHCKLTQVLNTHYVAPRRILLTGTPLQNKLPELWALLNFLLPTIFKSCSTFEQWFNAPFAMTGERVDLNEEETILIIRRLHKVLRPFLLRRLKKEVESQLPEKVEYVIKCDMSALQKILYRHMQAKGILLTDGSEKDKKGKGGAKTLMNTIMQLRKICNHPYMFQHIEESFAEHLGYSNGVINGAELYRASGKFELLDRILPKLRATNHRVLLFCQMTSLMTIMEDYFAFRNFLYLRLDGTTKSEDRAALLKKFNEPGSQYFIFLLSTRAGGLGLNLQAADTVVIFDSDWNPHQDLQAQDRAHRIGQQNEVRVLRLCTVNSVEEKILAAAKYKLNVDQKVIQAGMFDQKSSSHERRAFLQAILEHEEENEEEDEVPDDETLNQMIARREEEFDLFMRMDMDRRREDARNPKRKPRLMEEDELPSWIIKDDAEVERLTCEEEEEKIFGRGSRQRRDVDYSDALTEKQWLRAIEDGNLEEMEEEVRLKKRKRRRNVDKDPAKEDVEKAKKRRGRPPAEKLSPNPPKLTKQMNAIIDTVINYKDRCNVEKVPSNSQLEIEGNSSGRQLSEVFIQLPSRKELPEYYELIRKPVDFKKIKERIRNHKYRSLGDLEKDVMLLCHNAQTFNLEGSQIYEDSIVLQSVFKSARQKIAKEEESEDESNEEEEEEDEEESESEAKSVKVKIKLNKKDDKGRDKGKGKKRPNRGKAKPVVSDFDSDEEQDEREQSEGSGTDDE

`Cc1ncsc1-c1ccc(C(NC(=O)[C@@H]2C[C@@H](O)CN2C(=O)[C@@H](NC(=O)CC2CCN(c3cc(-c4cccc(F)c4O)nnc3N)CC2)C(C)(C)C)C(F)(F)F)cc1` (single isomer, unassigned) [Compound 78]: at SMARCA2, the “SMARCA2 @ 100 nM (% SMARCA2 degradation)” value amounted to 26%.

Take `Cc1ncsc1-c1ccc([C@H](C)NC(=O)[C@@H]2C[C@@H](O)CN2C(=O)[C@@H](NC(=O)CN2CCN(c3cc(-c4ccccc4N)nnc3N)CC2)C(C)(C)C)cc1` [Compound 93]: the “SMARCA2 @ 100 nM (% SMARCA2 degradation)” value at SMARCA2 is 74%.

Regarding `Cc1ncsc1-c1ccc([C@H](C)NC(=O)[C@@H]2C[C@@H](O)CN2C(=O)[C@@H](NC(=O)CC2CCN(c3cc(-c4cc(F)ccc4F)nnc3N)CC2)C(C)(C)C)cc1` [Compound 100], the “SMARCA2 @ 100 nM (% SMARCA2 degradation)” value on SMARCA2 is reported as 9%.

In the case of `Cc1ncsc1-c1ccc([C@H](C)NC(=O)[C@@H]2C[C@@H](O)CN2C(=O)[C@@H](NC(=O)Cn2cc(-c3cc(-c4cccc(F)c4O)nnc3N)cn2)C(C)(C)C)cc1` [Compound 62, (2S,4R)-1-((S)-2-(2-(4-(3-amino-6-(3-fluoro-2-hydroxyphenyl)pyridazin-4-yl)-1H-pyrazol-1-yl)acetamido)-3,3-dimethylbutanoyl)-4-hydroxy-N—((S)-1-(4-(4-methylthiazol-5-yl)phenyl)ethyl)pyrrolidine-2-carboxamide], on SMARCA2, the “SMARCA2 @ 100 nM (% SMARCA2 degradation)” value was found to be 27%.

`Cc1ncsc1-c1ccc([C@H](C)NC(=O)[C@@H]2C[C@@H](O)CN2C(=O)[C@@H](NC(=O)CN2CCN(c3cc(-c4ccccc4O)nnc3N)CC2)C(C)(C)C)cc1.Cl` [Compound 65, (2S,4R)-1-((S)-2-(2-(4-(3-amino-6-(2-hydroxyphenyl)pyridazin-4-yl)piperazin-1-yl)acetamido)-3,3-dimethylbutanoyl)-4-hydroxy-N—((S)-1-(4-(4-methylthiazol-5-yl)phenyl)ethyl)pyrrolidine-2-carboxamide hydrochloride]: the “SMARCA2 @ 100 nM (% SMARCA2 degradation)” value at SMARCA2 was 94%.

Turning to `Cc1ncsc1-c1ccc([C@H](C)NC(=O)[C@@H]2C[C@@H](O)CN2C(=O)[C@@H](NC(=O)CN2CCN(c3cc(C(N)=O)nnc3N)CC2)C(C)(C)C)cc1` [Compound 74, 6-amino-5-(4-(2-(((S)-1-((2S,4R)-4-hydroxy-2-(((S)-1-(4-(4-methylthiazol-5-yl)phenyl)ethyl)carbamoyl)pyrrolidin-1-yl)-3,3-dimethyl-1-oxobutan-2-yl)amino)-2-oxoethyl)piperazin-1-yl)pyridazine-3-carboxamide], the “SMARCA2 @ 100 nM (% SMARCA2 degradation)” value on SMARCA2 was found to be 21%.

`CNC(=O)c1cc(N2CCN(CC(=O)N[C@H](C(=O)N3C[C@H](O)C[C@H]3C(=O)N[C@@H](C)c3ccc(-c4scnc4C)cc3)C(C)(C)C)CC2)c(N)nn1` [Compound 75, 6-amino-5-(4-(2-(((S)-1-((2S,4R)-4-hydroxy-2-(((S)-1-(4-(4-methylthiazol-5-yl)phenyl)ethyl)carbamoyl)pyrrolidin-1-yl)-3,3-dimethyl-1-oxobutan-2-yl)amino)-2-oxoethyl)piperazin-1-yl)-N-methylpyridazine-3-carboxamide]: the “SMARCA2 @ 100 nM (% SMARCA2 degradation)” value at SMARCA2 was found to be 12%.

On to `Cc1ncsc1-c1ccc(C(NC(=O)[C@@H]2C[C@@H](O)CN2C(=O)[C@@H](NC(=O)CC2CCN(c3cc(-c4cccc(F)c4O)nnc3N)CC2)C(C)(C)C)C(F)(F)F)cc1` (single isomer, unassigned) [Compound 77], for which the “SMARCA2 @ 100 nM (% SMARCA2 degradation)” value at SMARCA2 stood at 9%.

With `COC(=O)c1cc(N2CCN(CC(=O)N[C@H](C(=O)N3C[C@H](O)C[C@H]3C(=O)N[C@@H](C)c3ccc(-c4scnc4C)cc3)C(C)(C)C)CC2)c(N)nn1` [Compound 72, methyl 6-amino-5-(4-(2-(((S)-1-((2S,4R)-4-hydroxy-2-(((S)-1-(4-(4-methylthiazol-5-yl)phenyl)ethyl)carbamoyl)pyrrolidin-1-yl)-3,3-dimethyl-1-oxobutan-2-yl)amino)-2-oxoethyl)piperazin-1-yl)pyridazine-3-carboxylate], in the assay with NCI-H929 cells, the IC50 was above 10 µM.

As to `Cc1ncsc1-c1ccc([C@H](C)NC(=O)[C@@H]2C[C@@H](O)CN2C(=O)[C@@H](NC(=O)CN2CCN(c3cc(C(=O)O)nnc3N)CC2)C(C)(C)C)cc1` [Compound 73, 6-amino-5-(4-(2-(((S)-1-((2S,4R)-4-hydroxy-2-(((S)-1-(4-(4-methylthiazol-5-yl)phenyl)ethyl)carbamoyl)pyrrolidin-1-yl)-3,3-dimethyl-1-oxobutan-2-yl)amino)-2-oxoethyl)piperazin-1-yl)pyridazine-3-carboxylic acid], in the assay on NCI-H929 cells, the IC50 is above 10 µM.

As to `Cc1ncsc1-c1ccc([C@H](C)NC(=O)[C@@H]2C[C@@H](O)CN2C(=O)[C@@H](NC(=O)CCCCCCC(=O)NC2CCN(c3cc(-c4ccccc4O)nnc3N)CC2)C(C)(C)C)cc1` [Compound 23], the IC50 with NCI-H929 cells was in the range of 1 to 10 µM.

On to `Nc1nnc(-c2ccccc2O)cc1N1CCC(NC(=O)CCCCCCCCCC(=O)Nc2cccc3c2CN(C2CCC(=O)NC2=O)C3=O)CC1` (stereo not shown) [Compound 18], for which the IC50 in the assay with NCI-H929 cells is above 10 µM.

Take `Nc1nnc(-c2ccccc2O)cc1N1CCN(C(=O)COCC(=O)Nc2cccc3c2CN(C2CCC(=O)NC2=O)C3=O)CC1` (stereo not shown) [Compound 28]: in the assay with NCI-H929 cells, the IC50 is above 10 µM.

With `Cc1ncsc1-c1ccc([C@H](C)NC(=O)[C@@H]2C[C@@H](O)CN2C(=O)[C@@H](NC(=O)CN2CCN(c3cc(-c4ccccc4O)nnc3O)CC2)C(C)(C)C)cc1` [Compound 54, (2S,4R)-4-hydroxy-1-((S)-2-(2-(4-(3-hydroxy-6-(2-hydroxyphenyl)pyridazin-4-yl)piperazin-1-yl)acetamido)-3,3-dimethylbutanoyl)-N—((S)-1-(4-(4-methylthiazol-5-yl)phenyl)ethyl)pyrrolidine-2-carboxamide], the IC50 in the assay on NCI-H929 cells is above 10 µM.

In the case of `Nc1nnc(-c2ccccc2O)cc1N1CCN(C(=O)CCCCCCC(=O)Nc2cccc3c2C(=O)N(C2CCC(=O)NC2=O)C3=O)CC1` (stereo not shown) [Compound 30], in the assay with NCI-H929 cells, the IC50 was above 10 µM.

`Nc1nnc(-c2ccccc2O)cc1N1CCN(C(=O)COCC(=O)Nc2cccc3c2C(=O)N(C2CCC(=O)NC2=O)C3=O)CC1` (stereo not shown) [Compound 29]: in the assay with NCI-H929 cells, the IC50 is above 10 µM.

Turning to `Nc1nnc(-c2ccccc2O)cc1N1CCN(CCC(=O)Nc2cccc3c2C(=O)N(C2CCC(=O)NC2=O)C3=O)CC1` (stereo not shown) [Compound 69], the “SMARCA2 @ 100 nM (% SMARCA2 degradation)” value on SMARCA2 is 12%.

With `Nc1nnc(-c2ccccc2O)cc1N1CCN(C(=O)CCCC(=O)Nc2cccc3c2CN(C2CCC(=O)NC2=O)C3=O)CC1` (stereo not shown) [Compound 25], the IC50 in the assay on NCI-H929 cells is above 10 µM.

With `Cc1ncsc1-c1ccc(CNC(=O)[C@@H]2C[C@@H](O)CN2C(=O)[C@@H](NC(=O)COCCOCCOCCNC(=O)C2CCN(c3cc(-c4ccccc4O)nnc3N)CC2)C(C)(C)C)cc1` [Compound 4], in the assay on NCI-H929 cells, the IC50 is above 10 µM.

Regarding `Cc1ncsc1-c1ccc(CNC(=O)[C@@H]2C[C@@H](O)CN2C(=O)[C@@H](NC(=O)CCCCCCCCCC(=O)N2CCN(c3cc(-c4ccccc4O)nnc3N)CC2)C(C)(C)C)cc1` [Compound 35], in the assay with NCI-H929 cells, the IC50 is 1 to 10 µM.

Take `Cc1ncsc1-c1ccc([C@H](C)NC(=O)[C@@H]2C[C@@H](O)CN2C(=O)[C@@H](NC(=O)CCCCCNC(=O)C2CCN(c3cc(-c4ccccc4O)nnc3N)CC2)C(C)(C)C)cc1` [Compound 113]: in the assay with NCI-H929 cells, the IC50 lay in the range of 1 to 10 µM.

Take `Nc1nnc(-c2ccccc2O)cc1N1CCN(CCCC(=O)Nc2cccc3c2C(=O)N(C2CCC(=O)NC2=O)C3=O)CC1` (stereo not shown) [Compound 70]: the “SMARCA2 @ 100 nM (% SMARCA2 degradation)” value on SMARCA2 is listed as -11%.

Regarding `Cc1ncsc1-c1ccc([C@H](C)NC(=O)[C@@H]2C[C@@H](O)CN2C(=O)[C@@H](NC(=O)CN2CCN(c3cc(-c4ccccc4Cl)nnc3N)CC2)C(C)(C)C)cc1` [Compound 89], in the assay on NCI-H929 cells, the IC50 is above 10 µM.

Take `Cc1ncsc1-c1ccc(CNC(=O)[C@@H]2C[C@@H](O)CN2C(=O)[C@@H](NC(=O)COCCN2CCN(c3cc(-c4ccccc4O)nnc3N)CC2)C(C)(C)C)cc1` [Compound 53, (2S,4R)-1-((S)-2-(2-(2-(4-(3-amino-6-(2-hydroxyphenyl)pyridazin-4-yl)piperazin-1-yl)ethoxy)acetamido)-3,3-dimethylbutanoyl)-4-hydroxy-N-(4-(4-methylthiazol-5-yl)benzyl)pyrrolidine-2-carboxamide]: the IC50 in the assay on NCI-H929 cells was above 10 µM.

Consider `Cc1ncsc1-c1ccc([C@H](C)NC(=O)[C@@H]2C[C@@H](O)CN2C(=O)[C@@H](NC(=O)OC2CCN(c3cc(-c4ccccc4O)nnc3N)CC2)C(C)(C)C)cc1` [Compound 80], for which the “SMARCA2 @ 100 nM (% SMARCA2 degradation)” value on SMARCA2 came to 13%.
